This is an account of results in patent US20060040957A1, “BICYCLIC PYRIMIDINE MATRIX METALLOPROTEINASE INHIBITORS” (priority 2001, published 2006).

Counter-ions that a name gives are not always drawn.

One assay concerns the target MMP-13CD (catalytic domain of collagenase 3) (Homo sapiens, UniProt P45452). The assay is described as follows: Thiopeptolide substrate hydrolysis assay, MMP-13CD. The settings on record: IC50 (μM) Versus Certain MMPs: MMP-13 CD, thiopeptolide substrate, HEPES pH 7.0, 22° C. The assay is classed as biochemical. An excerpt: Thiopeptolide substrates show virtually no decomposition or hydrolysis at or below neutral pH in the absence of a matrix metalloproteinase enzyme.
A word on the IC50: it is the concentration at which inhibition is half-maximal. In turn, `Cc1c(=O)n(Cc2ccccc2)c(=O)n2cc(C(=O)NCc3cn4ccsc4n3)sc12` [Example 38, 6-Benzyl-8-methyl-5,7-dioxo-6,7-dihydro-5H-thiazolo[3,2-c]pyrimidine-2-carboxylic acid(imidazo[2,1-b]thiazol-6-ylmethyl)-amide] showed a half-maximal inhibitory concentration (IC50) of 25 µM. The same measure, in the same setting: then `Cc1c(=O)n(Cc2ccccc2)c(=O)n2cc(C(=O)NCc3cnn(C)c3)sc12` [Example 39, 6-Benzyl-8-methyl-5,7-dioxo-6,7-dihydro-5H-thiazolo[3,2-c]pyrimidine-2-carboxylic acid(1-methyl-1H-pyrazol-4-ylmethyl)-amide], with 2.3 µM. Still for that read-out and setting: for `Cc1cccc(CNC(=O)c2cn3c(=O)n(Cc4ccccc4)c(=O)c(C)c3s2)n1` [Example 41, 6-Benzyl-8-methyl-5,7-dioxo-6,7-dihydro-5H-thiazolo[3,2-c]pyrimidine-2-carboxylic acid(6-methyl-pyridin-2-ylmethyl)-amide] the value was 6.2 µM; for `Cc1c(=O)n(Cc2ccccc2)c(=O)n2cc(C(=O)NCc3ccccn3)sc12` [Example 47, 6-Benzyl-8-methyl-5,7-dioxo-6,7-dihydro-5H-thiazolo[3,2-c]pyrimidine-2-carboxylic acid(pyridin-2-ylmethyl)-amide hydrochloride], 9.9 µM; for `C=C(C)Cn1c(=O)c(C)c2sc(C(=O)NCc3ccc(F)cc3)cn2c1=O` [Example 93, 8-Methyl-6-(2-methyl-allyl)-5,7-dioxo-6,7-dihydro-5H-thiazolo[3,2-c]pyrimidine-2-carboxylic acid 4-fluoro-benzylamide], 1.55 µM.

Still in this assay, the particulars now being: IC50 inhibition of MMP-13CD, running text after Table 1.
With `COc1cc(CNC(=O)c2cn3c(=O)n(Cc4ccc(F)c(F)c4)c(=O)c(C)c3s2)ccn1` [Example 114, 6-(3,4-Fluoro-benzyl)-8-methyl-5,7-dioxo-6,7-dihydro-5H-thiazolo[3,2-c]pyrimidine-2-carboxylic acid(2-methoxy-pyridin-4-ylmethyl)-amide hydrochloride], the half-maximal inhibitory concentration (IC50) came to 0.0155 µM.

Still in this assay, the particulars now being: running text after Table 1; read-out: IC50 inhibition of MMP-13CD.
Turning to `COC(=O)Nc1cc(Cn2c(=O)c(C)c3sc(C(=O)NCc4ccc(F)cc4)cn3c2=O)on1` [Example 111, {5-[2-(4-Fluoro-benzylcarbamoyl)-8-methyl-5,7-dioxo-7H-thiazolo[3,2-c]pyrimidine-6-ylmethyl]-isoxazol-3-yl}-carbamic acid methyl ester], the IC50 came to 0.17 µM.

Staying with this assay, now noted: thiopeptolide substrate, HEPES pH 7.0, 22° C.
Turning to `COC(=O)c1cn2c(=O)n(Cc3ccccc3)c(=O)c(C)c2s1` [Example 33a, 6-Benzyl-8-methyl-5,7-dioxo-6,7-dihydro-5H-thiazolo[3,2-c]pyrimidine-2-carboxylic acid methyl ester], the “IC50 (μM) Versus Certain MMPs: MMP-13 CD” value was “none”.

The same assay, now with this note: thiopeptolide substrate, HEPES pH 7.0, 22° C.; read-out: IC50 (μM) Versus Certain MMPs: MMP-13 CD.
Turning to `Cc1c(=O)n(Cc2ccccc2)c(=O)n2cc(C(=S)NCc3ccccc3)sc12` [Example 24, 6-Benzyl-8-methyl-5,7-dioxo-6,7-dihydro-5H-thiazolo[3,2-c]pyrimidine-2-carbothioic acid benzylamide], the half-maximal inhibitory concentration (IC50) is greater than 30 µM. Consider `COC(=O)c1sc2cc(=O)n(Cc3ccccc3)c(=O)n2c1C` [Example 26, 6-Benzyl-3-methyl-5,7-dioxo-6,7-dihydro-5H-thiazolo[3,2-c]pyrimidine-2-carboxylic acid methyl ester], for which the IC50 was greater than 100 µM.

With `Cc1c(=O)n(Cc2ccccc2)c(=O)n2cc(C(=O)NCc3ccc(Cl)cc3Cl)sc12` [Example 27, 6-Benzyl-8-methyl-5,7-dioxo-6,7-dihydro-5H-thiazolo[3,2-c]pyrimidine-2-carboxylic acid 2,4-dichloro-benzylamide], the half-maximal inhibitory concentration (IC50) was greater than 30 µM. Same read-out and setting: then `Cc1c(=O)n(Cc2ccccc2)c(=O)n2cc(C(O)C=Cc3ccccc3)sc12` (stereo not shown) [Example 29, 6-Benzyl-2-(1-hydroxy-3-phenyl-allyl)-8-methyl-thiazolo[3,2-c]pyrimidine-5,7-dione], with 25 µM; and `Cc1c(=O)n(Cc2ccccc2)c(=O)n2cc(C(O)C#Cc3ccccc3)sc12` (stereo not shown) [Example 31, 6-Benzyl-2-(1-hydroxy-3-phenyl-prop-2-ynyl)-8-methyl-thiazolo[3,2-c]pyrimidine-5,7-dione], with greater than 30 µM; and `Cc1c(=O)n(Cc2ccccc2)c(=O)n2cc(C(=O)O)sc12` [Example 33, 6-Benzyl-8-methyl-5,7-dioxo-6,7-dihydro-5H-thiazolo[3,2-c]pyrimidine-2-carboxylic acid], with greater than 100 µM. Same read-out and setting: then `Cc1c(=O)n(Cc2ccccc2)c(=O)n2cc(C(=O)NCc3cscn3)sc12` [Example 35, 6-Benzyl-8-methyl-5,7-dioxo-6,7-dihydro-5H-thiazolo[3,2-c]pyrimidine-2-carboxylic acid(thiazol-4-ylmethyl)-amide hydrochloride], with greater than 100 µM; and `C#CCNC(=O)c1cn2c(=O)n(Cc3ccccc3)c(=O)c(C)c2s1` [Example 40, 6-Benzyl-8-methyl-5,7-dioxo-6,7-dihydro-5H-thiazolo[3,2-c]pyrimidine-2-carboxylic acid prop-2-ynylamide], with greater than 100 µM. Still for that read-out and setting: for `Cc1c(=O)n(Cc2ccccc2)c(=O)n2cc(C(=O)NCC3CCNCC3)sc12` [Example 45, 6-Benzyl-8-methyl-5,7-dioxo-6,7-dihydro-5H-thiazolo[3,2-c]pyrimidine-2-carboxylic acid(piperidin-4-ylmethyl)-amide hydrochloride] the value was greater than 100 µM; for `Cc1nc(CNC(=O)c2cn3c(=O)n(Cc4ccccc4)c(=O)c(C)c3s2)cs1` [Example 52, 6-Benzyl-8-methyl-5,7-dioxo-6,7-dihydro-5H-thiazolo[3,2-c]pyrimidine-2-carboxylic acid(2-methyl-thiazol-4-ylmethyl)-amide hydrochloride], greater than 100 µM. With `Cc1c(=O)n(Cc2nn[nH]n2)c(=O)n2cc(C(=O)NCc3ccc(F)cc3)sc12` [Example 66, 8-Methyl-5,7-dioxo-6-(2H-tetrazol-5-ylmethyl)-6,7-dihydro-5H-thiazolo[3,2-c]pyrimidine-2-carboxylic acid 4-fluoro-benzylamide], the half-inhibitory concentration (IC50) turned out to be 14 µM. Still for that read-out and setting: for `Cc1c(=O)n(CCS(=O)(=O)c2ccc(Cl)cc2)c(=O)n2cc(C(=O)NCc3ccncc3)sc12` [Example 83, 6-[2-(4-Chloro-benzenesulfonyl)-ethyl]-8-methyl-5,7-dioxo-6,7-dihydro-5H-thiazolo[3,2-c]pyrimidine-2-carboxylic acid(pyridin-4-ylmethyl)-amide hydrochloride] the value was 2.6 µM; for `Cc1c(=O)n(CCC(=O)c2ccccc2)c(=O)n2cc(C(=O)NCc3ccc(F)cc3)sc12` [Example 86, 8-Methyl-5,7-dioxo-6-(3-oxo-3-phenyl-propyl)-6,7-dihydro-5H-thiazolo[3,2-c]pyrimidine-2-carboxylic acid 4-fluoro-benzylamide], 0.35 µM; for `Cc1c(=O)n(C(C)c2ccccc2)c(=O)n2cc(C(=O)NCc3ccc(F)cc3)sc12` (stereo not shown) [Example 87, 8-Methyl-5,7-dioxo-6-(1-phenyl-ethyl)-6,7-dihydro-5H-thiazolo[3,2-c]pyrimidine-2-carboxylic acid 4-fluoro-benzylamide], 2.1 µM. Still for that read-out and setting: then `Cc1c(=O)n(CCCCCC#N)c(=O)n2cc(C(=O)NCc3ccc(F)cc3)sc12` [Example 89, 6-(5-Cyano-pentyl)-8-methyl-5,7-dioxo-6,7-dihydro-5H-thiazolo[3,2-c]pyrimidine-2-carboxylic acid 4-fluoro-benzylamide], with 1.08 µM; and `CCC(CC)n1c(=O)c(C)c2sc(C(=O)NCc3ccc(F)cc3)cn2c1=O` [Example 94, 6-(1-Ethyl-propyl)-8-methyl-5,7-dioxo-6,7-dihydro-5H-thiazolo[3,2-c]pyrimidine-2-carboxylic acid 4-fluoro-benzylamide], with greater than 30 µM; and `Cc1c(=O)n(CCS(=O)(=O)c2ccccc2)c(=O)n2cc(C(=O)NCc3ccc(F)cc3)sc12` [Example 96, 6-(2-Benzenesulfonyl-ethyl)-8-methyl-5,7-dioxo-6,7-dihydro-5H-thiazolo[3,2-c]pyrimidine-2-carboxylic acid 4-fluoro-benzylamide], with 1.2 µM.

As to `Cc1c(=O)n(CCNC(=O)c2ccccc2)c(=O)n2cc(C(=O)NCc3ccc(F)cc3)sc12` [Example 100, 6-(2-Benzoylamino-ethyl)-8-methyl-5,7-dioxo-6,7-dihydro-5H-thiazolo[3,2-c]pyrimidine-2-carboxylic acid 4-fluoro-benzylamide], the half-maximal inhibitory concentration (IC50) is 10 µM.

For the compound `Cc1c(=O)n(Cc2ccc(S(=O)(=O)N3CCOCC3)cc2)c(=O)n2ccsc12` [Example 108, 8-Methyl-6-[4-(morpholine-4-sulfonyl)-benzyl]-thiazolo[3,2-c]pyrimidine-5,7-dione], the concentration for half-maximal inhibition (IC50) is greater than 100 µM. Still for that read-out and setting: for `Cc1c(=O)n(Cc2ccccc2)c(=O)n2cc(C(=O)NCC3CCCO3)sc12` (stereo not shown) [Example 110, 6-Benzyl-8-methyl-5,7-dioxo-6,7-dihydro-5H-thiazolo[3,2-c]pyrimidine-2-carboxylic acid(tetrahydro-furan-2-ylmethyl)-amide] the value was 54 µM.
